Data as given in patent US20190062697A1, “Cell Differentiation Marker and its Uses” (Centre National De La Recherche Scientifique (CNRS), priority 2013, published 2019).

Key:
ES cells [1] = test: FACS cell cycle analysis of asynchronously growing ES cells treated with roscovitine; assay type: cell-based, mouse; settings: increasing concentration of roscovitine
Description: FIG. 5C is FACS analysis of asynchronously growing ES cells treated with increasing concentration of Roscovitine (in μM; Z-axis). Roscovitine is a potent and selective inhibitor of cyclin-dependent kinases, […]. X-axis represents DNA content (expressed in propidium iodide fluorescence) and Y-axis represents the number of cells.
Single-cell suspensions were prepared by trypsinisation and washed once in PBS. Cells were fixed in ice-cold 70% ethanol (−20° C.) and stored at −20° C. overnight. Following RNAse A treatment, total DNA was stained with propidium iodide (25 μg/ml). For BrdU uptake analysis, ES cells and NIH-3t3 cells were grown in the presence of 10 μM BrdU for respectively 10 and 30 minutes. The BrdU content was determined by reaction with a fluorescein isothiocyanate (FITC)-conjugated anti-BrdU antibody (BD Biosciences). Cells were analyzed with a FACScalibur flow cytometer using CellQuestPro software.

Cdc25A mRNA = test: qPCR quantification of Cdc25A mRNA in ES cells; assay type: cell-based, mouse
Description: FIG. 6I is a histogram showing qPCR quantification of Cdc25A normalised to multiple reference genes expressed as percentage of control. ES cells were transfected with control (Luc), β-TrCP (1), Cdh1 (2) or Dub3 (3) RNAi sequences and collected 48 hours after transfection. Bars represent the mean±SD of triplicate observations.
FIG. 7C is a histogram showing the qPCR quantification of Cdc25A mRNA normalised to multiple reference genes. ES cells were transfected with control (1), Dub3 (2) or Cdc25A (3) RNAi sequences.
(§1) FIG. 9A is a graph showing qPCR quantification of Cdc25A (curves with black squares) and Dub3 (curves with triangles) mRNA in ES cells treated with increasing concentration of the selective Esrrb and Esrrg agonist DY131 (indicated doses in μM) for 16 hours. Bars represent the fold induction±SD of triplicate observations.
Briefly, ES cells were maintained in Glasgow MEM BHK-21 (GMEM) supplemented with 10% fetal bovine serum, non-essential amino acids, L-glutamine, sodium pyruvate, β-mercapthethanol. NIH-3t3 cells were maintained in Dulbecco's modified eagle's medium (DMEM) supplemented with 10% fetal bovine serum, 2 mM glutamine and antibiotics. […]
(§2) Total RNA was isolated with TRIzol reagent (Invitrogen). […] Quantitative PCRs were performed using Lightcycler SYBR Green I Master mix (Roche) on Lightcycler apparatus (Roche). […]

Cdc25A = test: Western blot analysis of Cdc25A protein levels in ES cells; assay type: cell-based, mouse
Description: Cells were UV-irradiated and incubated with cycloheximide (Cx) in absence or presence of Chk1 inhibitor SB218078, collected at the indicated times (min) and analyzed by western blotting. Cdc25A expression (#1) and β-actin (#2; as control) are shown.
FIG. 6J is a western blot analysis of Cdc25A protein expression in Luciferase (a.), β-TrCP (b.) and Cdh1 (c.) RNAi-transfected cells. Expression of Cdc25A (#1) and β-actin (#2) is shown.
Expression of CDC25A (#1), Cdc25C (#2) and β-actin (#3, as control) is represented.
FIG. 9B is a western blot analysis of Cdc25A protein levels in ES cells treated with increasing concentrations (in μM) of the DY131 agonist for 16 hours. Cdc25A (#1) and β-actin (#2, as control) protein expression is represented.
Cells were rinsed once in PBS and then incubated with ice cold lysis buffer (50 mM Tris-HCl pH 7.4, 100 mM NaCl, 50 mM NaF, 5 mM EDTA, 40 mM β-glycero-phosphate, 1% Triton X-100 and protease inhibitors) for 30 min on ice before scraping. Whole cell extracts were clarified by centrifugation at 12000 rcf for 10 min at 4° C. Protein concentration of the clarified lysates was estimated using BCA method (Pierce). Equal amount of protein was used for western blot analysis. All antibodies were incubated overnight at 4° C. in phosphate-buffered saline (PBS) containing 1% BSA and 0.1% Tween (Sigma). Antibodies used from Cell Signaling: Chk1S345P (2341), p53S15P (9284), γH2AX (2577), CDK2Y15P (9111), Myc-Tag (2276); Active caspase 3 (9961); Abcam: DNA polα (ab31777), H3 (ab1791), CDK2 (ab6538), PSTAIR (ab10345), GFP (ab290), MCM2 (ab4461); Suds3 (ab3740) Santa Cruz: Cdc45 (sc-20685), Cdc25A (sc-7389), Chk1 (sc-8408), Cyclin B1 (sc-245), Cdc25C (sc-327), Cdc25B (sc-65504), p21 (sc-6246), RhoA (sc-418); anti-goat IgG-HRP (sc-2020) Sigma: (PC10), β-actin (A1978), Cyclin A (C7410), Anti-Flag M2 (F1804), Oct4 (Chemicon, AB3209), and Millipore, Nestin (Ab353), H3S10P (Millipore 09-797). Wee1 (kindly provided by T. Lorca, CRBM Montpellier).

ES cells [2] = test: Clonogenic assay of ES cells with alkaline phosphatase (AP) staining; assay type: cell-based, mouse; settings: prolonged (7 days) RNAi knockdown, in the presence of LIF
Description: FIG. 12M is a histogram showing a clonogenic assay of ES cells upon prolonged control (1), Dub3 (2) or Cdc25a (3) targeting RNAi sequence. Cells were plated at clonal density in LIF-containing serum and stained for AP after 7 days. Columns show the percentage of alkaline phosphatase (AP) positive (dark grey) or negative (light grey) colonies. At least 150 colonies were scored.

[3] = system: deubiquitylating enzymes (DUBs); settings: cited from earlier work
ES cells [4] = test: BrdU pulse-labelling / FACS of synchronized ES cells UV-irradiated in G1 (S-phase entry); assay type: cell-based, mouse; settings: 24 hours knockdown, UV light in G1, collected 2 hours after UV
Description: FIG. 4F is a histogram showing Cdc25A downregulation in G1 delay upon DNA damage. Control (a.) and Cdc25A (b.) RNAi-transfected cells were released from nocodazole and exposed to UV light in G1 (t=2) and collected 2 hours (t=4) after UV-(+) or mock-irradiation (−). Prior to collection cells were pulse-labelled with BrdU. Fraction (expressed as %) of diploid BrdU negative cells is plotted (data are represented as mean±SD). Statistical differences is indicated with a single asterisk (*) for P<0.05. Y-axis represents the percentage of cells in G1.
ES cells were arrested in prometaphase by nocodazole (Sigma) for 4-8 hours. After mitotic-shake off cells were washed 3 times in ice-cold PBS and dissolved in full ES growth medium. Cells were incubated in a humidified atmosphere of 5% CO2 at 37° C. for 45 minutes and placed at 30° C. for 1 hour to reduce S phase entry. Cells were mock- or UV-irradiated (6 J/m2) and incubated at 37° C. prior collection. To synchronise NIH-3t3 cells in G0 cells were grown to confluence and incubated for 2-3 days. Next, cells were washed, resuspended and split at 30% confluency. […]
Single-cell suspensions were prepared by trypsinisation and washed once in PBS. […] The BrdU content was determined by reaction with a fluorescein isothiocyanate (FITC)-conjugated anti-BrdU antibody (BD Biosciences). Cells were analyzed with a FACScalibur flow cytometer using CellQuestPro software.

CDK2^Y15P = test: Western blot of inhibitory CDK2 Tyr15 phosphorylation upon DNA damage in G1; assay type: cell-based, mouse; settings: 24 hours knockdown, UV light in G1
Source text: FIG. 4E is a western blot showing the downregulation of Cdc25A expression by RNAi resulting in increased inhibitory CDK2Tyr15 phosphorylation upon DNA damage in G1. Control (a.) and Cdc25A (b.) RNAi-transfected cells were released from nocodazole and exposed (+) to UV-light in G1. Samples were collected at the indicated times and analyzed by western blotting with the indicated antibodies: Cdc25A (#1), Cdk2^Y15P (#2), Cyclin B1 (#3), Chk1^S345P (#4), Chk1 (#5) and β-actin (#6; as control).
Western blot signals of FIG. 4E were quantified by densitometry scanning and expressed as relative optical density (ROD) compared to Chk1 signal as loading control. Black bars represent cells treated with Cdc25A RNAi (a.) and white bars represent cells treated with control RNAi (b.).
Cells were rinsed once in PBS and then incubated with ice cold lysis buffer (50 mM Tris-HCl pH 7.4, 100 mM NaCl, 50 mM NaF, 5 mM EDTA, 40 mM β-glycero-phosphate, 1% Triton X-100 and protease inhibitors) for 30 min on ice before scraping. Whole cell extracts were clarified by centrifugation at 12000 rcf for 10 min at 4° C. Protein concentration of the clarified lysates was estimated using BCA method (Pierce). Equal amount of protein was used for western blot analysis. All antibodies were incubated overnight at 4° C. in phosphate-buffered saline (PBS) containing 1% BSA and 0.1% Tween (Sigma). […]

Dub3 mRNA = test: qPCR quantification of Dub3 mRNA in ES cells; assay type: cell-based, mouse; settings: increasing dose of DY131, 16 hours
Description: as §1
FIG. 9C is a histogram showing qPCR quantification of Esrrb (1) and Dub3 (2) mRNA normalised to multiple reference genes expressed as percentage of control in presence of DY131. ES cells were transfected with control (Crtl) RNAi (white bars) or Esrrb specific RNAi sequence (black bars). Data are expressed as mean±SD (error bars) of multiple observations.
Briefly, ES cells were maintained in Glasgow MEM BHK-21 (GMEM) supplemented with 10% fetal bovine serum, non-essential amino acids, L-glutamine, sodium pyruvate, β-mercapthethanol. NIH-3t3 cells were maintained in Dulbecco's modified eagle's medium (DMEM) supplemented with 10% fetal bovine serum, 2 mM glutamine and antibiotics. The viruses-containing conditioned medium was incubated on exponentially growing NIH-3t3 cells for 24 hours in the presence of polybrene ([…]). […]
as §2

[5] = RNAi-mediated knockdown in ES cells
[6] = increasing dose of DY131, 16 hours, ES cells

CC[C@H](CO)Nc1nc(NCc2ccccc2)c2ncn(C(C)C)c2n1 [roscovitine]
G1 cells (ES cells [1]): dose-dependent increase of G1 cells
fraction of S phase cells (ES cells [1]): reduced the fraction of S phase cells

5′-GGCUGUAAGAUGUGUGCUA-3′ (listed as RNA, chemistry not given here) [Dub3 RNAi]
Cdc25A mRNA level (Cdc25A mRNA; [5]): did not affect Cdc25A mRNA level
reduction of Cdc25A protein abundance (Cdc25A; [5]): 3 fold
alkaline phosphatase (AP)-negative colonies (ES cells [2]): increase of alkaline phosphatase (AP)-negative colonies

O=C1NC(=O)c2c1c1c3ccccc3n3c1c1c2c2ccccc2n1C1CCC3O1 [SB218078]
Cdc25A destruction upon DNA damage (Cdc25A; UV-irradiated ES cells with cycloheximide, absence or presence of Chk1 inhibitor): rapid Cdc25A destruction upon DNA damage is Chk1-dependent

N#CSc1cc(SC#N)c(N)nc1N [PR-619]
accumulation of polyubiquitylated proteins in cells [3]: induces the accumulation of polyubiquitylated proteins in cells
proteasome activity [3]: without directly affecting proteasome activity

5′-GAAAUUUCCCUGACGAGAA-3′ (listed as RNA, chemistry not given here) [Cdc25A RNAi]
BrdU-negative cells with 2N DNA content (ES cells [4]): significant, UV-dependent, increase of BrdU-negative cells with 2N DNA content
CDK2^Y15P levels (CDK2^Y15P): increased CDK2^Y15P levels
alkaline phosphatase (AP)-negative colonies (ES cells [2]): A very similar result was also observed

CCN(CC)c1ccc(/C=N/NC(=O)c2ccc(O)cc2)cc1 [DY131]
Dub3 gene expression (Dub3 mRNA): boosted Dub3 gene expression
Cdc25A transcript level (Cdc25A mRNA; [6]): without affecting Cdc25A transcript level
Cdc25A protein abundance (Cdc25A; [6]): increased Cdc25A protein abundance
